Reference: ChEMBL document CHEMBL4419163, “Assays for identifying compounds that modulate bitter taste” (2014)

How the values were obtained:
Format in all cases: functional, cell-based
[1] = target: T1, Taste receptor type 2 member 8 (Homo sapiens) (UniProt Q9NYW2); test: Agonist activity at human TAS2R8 expressed in HEK293T cells co-expressing Galpha15 assessed as increase in intracellular calcium level at 20 mM by Calcium-3 dye based fluorescence assay relative to control
T1 sequence (whole entry): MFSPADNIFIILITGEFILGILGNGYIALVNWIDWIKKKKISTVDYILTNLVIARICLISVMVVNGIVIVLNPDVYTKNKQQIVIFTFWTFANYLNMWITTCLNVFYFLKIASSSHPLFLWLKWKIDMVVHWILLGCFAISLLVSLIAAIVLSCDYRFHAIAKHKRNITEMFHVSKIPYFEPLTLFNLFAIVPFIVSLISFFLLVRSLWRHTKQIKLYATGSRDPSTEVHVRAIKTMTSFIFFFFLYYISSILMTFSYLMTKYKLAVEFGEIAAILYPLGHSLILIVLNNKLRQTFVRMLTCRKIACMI

[2] = target: T2, Taste receptor type 2 member 45 (Homo sapiens) (UniProt P59539); test: Agonist activity at human TAS2R45 expressed in HEK293T cells co-expressing Galpha15 assessed as increase in intracellular calcium level at 20 mM by Calcium-3 dye based fluorescence assay relative to control
T2 sequence (whole entry): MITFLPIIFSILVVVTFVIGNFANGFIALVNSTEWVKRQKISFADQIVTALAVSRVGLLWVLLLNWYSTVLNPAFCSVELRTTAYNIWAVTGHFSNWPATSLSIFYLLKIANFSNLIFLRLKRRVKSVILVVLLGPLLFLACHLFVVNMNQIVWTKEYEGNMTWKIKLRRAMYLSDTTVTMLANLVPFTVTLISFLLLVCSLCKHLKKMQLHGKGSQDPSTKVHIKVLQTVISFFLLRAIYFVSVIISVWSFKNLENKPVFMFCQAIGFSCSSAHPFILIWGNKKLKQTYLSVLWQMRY

[3] = target: T3, Taste receptor type 2 member 31 (Homo sapiens) (UniProt P59538); test: Agonist activity at human TAS2R44 expressed in HEK293T cells co-expressing Galpha15 assessed as increase in intracellular calcium level at 20 mM by Calcium-3 dye based fluorescence assay relative to control
T3 sequence (whole entry): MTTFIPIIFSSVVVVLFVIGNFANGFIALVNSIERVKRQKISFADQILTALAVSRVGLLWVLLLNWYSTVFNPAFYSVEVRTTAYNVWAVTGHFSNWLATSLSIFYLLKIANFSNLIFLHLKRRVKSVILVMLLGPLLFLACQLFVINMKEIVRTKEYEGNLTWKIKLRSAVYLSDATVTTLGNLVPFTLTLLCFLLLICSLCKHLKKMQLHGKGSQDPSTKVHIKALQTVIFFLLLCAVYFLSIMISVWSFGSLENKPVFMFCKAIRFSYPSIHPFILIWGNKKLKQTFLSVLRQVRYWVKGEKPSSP

[4] = target: T4, Taste receptor type 2 member 41 (Homo sapiens) (UniProt P59536); test: Agonist activity at human TAS2R41 expressed in HEK293T cells co-expressing Galpha15 assessed as increase in intracellular calcium level at 20 mM by Calcium-3 dye based fluorescence assay relative to control
T4 sequence (whole entry): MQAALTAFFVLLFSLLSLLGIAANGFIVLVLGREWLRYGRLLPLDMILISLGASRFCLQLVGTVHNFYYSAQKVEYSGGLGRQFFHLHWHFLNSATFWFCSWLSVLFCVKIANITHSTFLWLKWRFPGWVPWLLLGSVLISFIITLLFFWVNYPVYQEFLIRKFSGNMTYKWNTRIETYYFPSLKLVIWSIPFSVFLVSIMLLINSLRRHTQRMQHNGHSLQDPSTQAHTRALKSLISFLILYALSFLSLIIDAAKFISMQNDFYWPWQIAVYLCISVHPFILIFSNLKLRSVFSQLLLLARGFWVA

[5] = target: T5, Taste receptor type 2 member 20 (Homo sapiens) (UniProt P59543); test: Agonist activity at human TAS2R49 expressed in HEK293T cells co-expressing Galpha15 assessed as increase in intracellular calcium level at 20 mM by Calcium-3 dye based fluorescence assay relative to control
T5 sequence (whole entry): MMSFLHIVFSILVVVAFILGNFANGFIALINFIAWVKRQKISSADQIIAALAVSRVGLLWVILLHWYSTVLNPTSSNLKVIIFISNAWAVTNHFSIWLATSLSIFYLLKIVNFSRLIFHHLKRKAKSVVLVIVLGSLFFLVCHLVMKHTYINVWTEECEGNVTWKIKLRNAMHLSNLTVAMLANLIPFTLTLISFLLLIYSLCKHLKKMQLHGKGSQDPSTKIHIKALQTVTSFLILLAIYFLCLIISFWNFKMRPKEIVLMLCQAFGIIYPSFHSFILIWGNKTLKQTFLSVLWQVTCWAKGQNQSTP

[6] = target: T6, Taste receptor type 2 member 9 (Homo sapiens) (UniProt Q9NYW1); test: Agonist activity at human TAS2R9 expressed in HEK293T cells co-expressing Galpha15 assessed as increase in intracellular calcium level at 20 mM by Calcium-3 dye based fluorescence assay relative to control
T6 sequence (whole entry): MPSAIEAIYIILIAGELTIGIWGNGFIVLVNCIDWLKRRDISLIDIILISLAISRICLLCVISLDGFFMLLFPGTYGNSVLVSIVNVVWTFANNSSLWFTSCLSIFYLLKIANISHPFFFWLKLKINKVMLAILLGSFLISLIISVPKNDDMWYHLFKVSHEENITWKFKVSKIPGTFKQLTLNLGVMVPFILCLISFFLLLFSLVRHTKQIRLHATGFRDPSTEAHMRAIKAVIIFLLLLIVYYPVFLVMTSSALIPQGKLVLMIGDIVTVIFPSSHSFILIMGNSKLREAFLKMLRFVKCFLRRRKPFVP

[7] = target: T7, Taste receptor type 2 member 4 (Homo sapiens) (UniProt Q9NYW5); test: Agonist activity at human TAS2R4 expressed in HEK293T cells co-expressing Galpha15 assessed as increase in intracellular calcium level at 20 mM by Calcium-3 dye based fluorescence assay relative to control
T7 sequence (whole entry): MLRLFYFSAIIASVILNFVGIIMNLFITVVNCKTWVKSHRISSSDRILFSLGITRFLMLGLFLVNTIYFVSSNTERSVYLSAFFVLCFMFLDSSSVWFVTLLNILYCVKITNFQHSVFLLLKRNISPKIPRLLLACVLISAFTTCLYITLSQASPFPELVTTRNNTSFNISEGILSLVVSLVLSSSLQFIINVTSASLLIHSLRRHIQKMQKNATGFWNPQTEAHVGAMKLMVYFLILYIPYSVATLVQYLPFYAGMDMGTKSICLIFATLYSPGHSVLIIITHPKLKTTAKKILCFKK

Activity [1]	Activity [2]	Activity [3]	Activity [4]	Activity [5]	Activity [6]	Activity [7]	SMILES
< 40%	< 40%	> 40%	< 40%	< 40%	> 40%	> 40%	[Cl-].[K+] [POTASSIUM CHLORIDE]
< 40%	< 40%	> 40%	< 40%	< 40%	> 40%	> 40%	CC1=CC(=O)NS(=O)(=O)O1
< 40%	< 40%	> 40%	< 40%	< 40%	> 40%	> 40%	CC(O)C(=O)[O-].[K+] (stereo unspecified)
